The text below walks through data of article PMC11561622, “Evaluating Antimalarial Proteasome Inhibitors for Efficacy in Babesia Blood Stage Cultures” (ACS Omega, 2024).

For assay [1], the system named is catalytic subunits of Bd20S. Nature of the assay: Activity-based probe labeling (Me4BodipyFL-Ahx3Leu3VS) of Bd20S catalytic subunits. The settings on record: lysates from CFZ- and CPB-treated cells, vs vehicle. The format is binding, Babesia divergens.
For a further assay, the system named is B. divergens. In words: B. divergens growth in bovine erythrocyte cultures (flow cytometry parasitemia). The class given is cell-based, Babesia divergens. The conditions noted are these: for EC50: bovine erythrocyte cultures, 48 h, dose-response. As to the method:
Blood stage cultures of B. divergens (strain 2210A G2) were maintained in erythrocytes from defibrinated bovine blood (BioTrading Benelux B.V.). Parasites were multiplied in in vitro erythrocyte cultures containing RPMI 1640 medium (Lonza, cat. no. BE12-115F) supplemented with 50 μg/mL gentamicin (Lonza), 0.25 μg/mL amphotericin B (Sigma-Aldrich), and 20% (v/v) heat-inactivated fetal calf serum (Lonza, inactivation at 56 °C for 30 min before use). Cells were cultured at 37 °C in a 5% CO2 environment. B. microti (Franca) (ATTC PRA-99) was maintained by continuous intraperitoneal passages in BALB/c female mice (Charles River Laboratories). All laboratory animals were treated in accordance with the Animal Protection Law of the Czech Republic No. 246/1992 Sb., ethics approval no. 25/2018. The study was approved by the Institute of Parasitology, Biology Centre of the Czech Academy of Sciences and the Central Committee for the Animal Welfare, Czech Republic (protocol no. 1/2015).
To evaluate the effect of inhibitors on B. divergens replication, cultures (5% hematocrit) containing 2% parasitemia were cultivated in media. Single concentration screens were first performed using 600 nM of compound and then dose–response assays (5400 to 2.34 nM) were subsequently performed for compounds of interest. Assays were performed twice in triplicate wells in a 96-well tissue culture plate format (TPP, Switzerland) and media containing inhibitors were replaced at 12 h intervals for a total of 48 h. DMSO diluted in medium (0.1%) served as a vehicle control. The parasitemia of intraerythrocytic B. divergens was determined using flow cytometry following the staining of nucleic acids as described previously.[31] Briefly, infected red blood cells were fixed in a solution of 4% paraformaldehyde and 0.025% glutaraldehyde in PBS for 30 min at room temperature (RT). […] Parasitemia was analyzed using a FACS CantoII flow cytometer and Diva software provided by BD Biosciences. The EC50 of compounds in the dose–response inhibition was determined in GraphPad Prism 10 using nonlinear regression.
(In general: A flow cytometer gives signals particle by particle.)

Assay [2] relates to B. microti proteasome β5 subunit. In words: β5 proteasome activity in B. microti lysates (Suc-LLVY-amc). The class given is biochemical, Babesia microti. The conditions noted are these: 133.33 nM inhibitor, relative to DMSO. As for the experimental part: B. divergens and B. microti protein lysates were prepared from infected red blood cells. Briefly, red blood cells were lysed with 0.15% saponin prepared in 1× Phosphate-Buffered Saline (PBS), pH 7.5, to release intact parasites. Parasites were washed with 1× PBS, pH 7.5 (PBS), by centrifugation and the pellets were stored at −80 °C in PBS plus 20% glycerol. To prepare protein lysates for enzymatic assays, parasites were thawed and transferred to 50 mM HEPES (pH 7.5), 10 μM E64, 100 μM AESBF, 1 μM Pepstatin A, and 1 mM DTT (all Sigma-Aldrich). Cells were ruptured by ultrasonication with an amplitude of 0.5 for 3 cycles of 15 s on ice. To prepare protein lysates for activity-based probing and proteasome purification, parasites were thawed and transferred to 20 mM Tris-HCl, pH 7.5, 1 mM DTT, 10 μM E64, and 5% glycerol. The lysate was sonicated on ice for 3 times and clarified by centrifugation at 17,000g for 10 min at 4 °C.
To further improve the detection of the β5 subunit activity with the Suc-LLVY-amc substrate of the Babesia proteasome as previously published,[27] we aimed to further optimize assay conditions. However, to reduce the number of experimental animals in the study, assay conditions were optimized using protein lysates of B. divergens, which can be grown in vitro, instead of B. microti lysates, which need to be maintained in mice. […] Two assay buffers were evaluated. […] The release of the AMC fluorophore was monitored at 37 °C in a Synergy HTX multimode reader (BioTek) with excitation and emission wavelengths set to 340 and 460 nm, respectively.
Proteasome activity in B. microti and B. divergens lysates was screened in the presence of carmaphycin B (CPB) and numerous analogs that were previously designed to target the P. falciparum 20S proteasome.[30] […] The release of the AMC fluorophore was monitored at 37 °C in a Synergy HTX multimode reader (BioTek Instruments, Winooski, VT) with excitation and emission wavelengths set to 340 and 460 nm, respectively. Activity was quantified as RFU per second and normalized to the DMSO control reactions.

On to `CCCCCC(=O)N[C@H](C(=O)N[C@@H](CCS(C)(=O)=O)C(=O)N[C@@H](CC(C)C)C(=O)[C@@]1(C)CO1)C(C)C` [carmaphycin B], for which the “labeling of catalytic subunits by activity-based probe” value in assay [1] is recorded as “significantly reduced”. For the same molecule, the “Selectivity index (B. divergens over HepG2 cells)” value in the assay with B. divergens (HepG2 EC50 / B. divergens EC50) worked out at 0.21. Further, the EC50 in the assay with B. divergens and in the assay on B. divergens (listed as CPB) was 0.0595 ± 0.0128 µM throughout. Also, the “inhibition of β5 activity in B. microti lysate (in words)” value in assay [2] was “to the same extent as CFZ”; in assay [2] (listed as CPB) it was “inhibited”.

What is called EC50 is the concentration that produces a half-maximal response.
